From patent publication US12441730B2, “PRMT5 inhibitors” (Merck Sharp & Dohme LLC, priority 2019, dated 2025)
Like-named read-outs stand apart in the source and are kept apart here.

Experiments:
[1] = system: symmetric dimethylation of arginine (SDMA) of PRMT5 substrates in MCF-7 cells; experiment: PRMT5 Cell Target Engagement (TE) Assay; format: cell-based; settings: Homo sapiens, MCF7, 72 h, 3 days treatment, SDMA high content imaging
Method in brief: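 Readout is single-cell nuclear symmetric-dimethylarginine immunofluorescence (Alexa488), normalized to DMSO-treated cells. Compounds were applied to MCF-7 cells for 3 days at 37 °C, top concentration 10000 nM in 1:3 steps over ten points; curves fitted with 4-parameter robust fit.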

[2] = target: T1, Full-length (FL)-PRMT5-MEP50 enzyme complex (Homo sapiens, UniProt O14744); experiment: PRMT5-MEP50 Enzyme Methylation Assay (Version A); format: biochemical
T1 construct: Full-length (FL)-PRMT5-MEP50 enzyme complex (recombinant proteins from baculovirus-transfected Sf21 cells: FL-PRMT5; MW=73837 kDa and FL-MEP50; MW=38614); made in house; host or cells: baculovirus-transfected Sf21 cells
Method in brief: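 Compound was pre-incubated with enzyme for 60 min, then reacted 150 min at 37° C. at final 1.0 nM PRMT5-MEP50, 15 μM SAM and 75 nM biotinylated H4R3(Me1) peptide, in 50 mM Bicine pH 8.0 with 1% DMSO. SAMDI mass-spectrometric readout of Me1→Me2 conversion. EC50 from 4- or 7-parameter regression.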

[3] = second value of 7 parameter biphasic fit, read-out: Enzyme Methylation Assay Version A (EC50 2)
[4] = single EC50 = 4 parameter single site sigmoidal fit, EC50 1 = first value of 7 parameter biphasic fit, read-out: Enzyme Methylation Assay Version A (EC50 or EC50 1)

T1 sequence (O14744 whole entry): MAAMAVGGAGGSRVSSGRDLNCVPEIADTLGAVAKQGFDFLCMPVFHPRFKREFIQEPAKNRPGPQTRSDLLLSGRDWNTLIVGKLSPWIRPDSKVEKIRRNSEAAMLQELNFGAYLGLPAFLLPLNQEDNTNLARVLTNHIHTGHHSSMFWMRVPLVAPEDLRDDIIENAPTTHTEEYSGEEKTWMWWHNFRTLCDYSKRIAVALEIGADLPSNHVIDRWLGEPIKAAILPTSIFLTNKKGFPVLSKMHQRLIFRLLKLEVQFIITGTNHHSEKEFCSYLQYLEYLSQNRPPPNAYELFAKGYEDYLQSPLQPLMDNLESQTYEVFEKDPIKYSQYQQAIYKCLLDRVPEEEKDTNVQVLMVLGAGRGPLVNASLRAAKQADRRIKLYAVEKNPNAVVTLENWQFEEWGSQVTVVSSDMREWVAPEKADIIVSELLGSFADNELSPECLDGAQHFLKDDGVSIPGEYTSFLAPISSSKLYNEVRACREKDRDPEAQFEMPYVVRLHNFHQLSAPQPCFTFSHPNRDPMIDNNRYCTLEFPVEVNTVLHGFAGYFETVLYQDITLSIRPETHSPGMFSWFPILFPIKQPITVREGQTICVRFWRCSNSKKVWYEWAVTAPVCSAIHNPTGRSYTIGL
T1 sequence (Q9BQA1 whole entry partner): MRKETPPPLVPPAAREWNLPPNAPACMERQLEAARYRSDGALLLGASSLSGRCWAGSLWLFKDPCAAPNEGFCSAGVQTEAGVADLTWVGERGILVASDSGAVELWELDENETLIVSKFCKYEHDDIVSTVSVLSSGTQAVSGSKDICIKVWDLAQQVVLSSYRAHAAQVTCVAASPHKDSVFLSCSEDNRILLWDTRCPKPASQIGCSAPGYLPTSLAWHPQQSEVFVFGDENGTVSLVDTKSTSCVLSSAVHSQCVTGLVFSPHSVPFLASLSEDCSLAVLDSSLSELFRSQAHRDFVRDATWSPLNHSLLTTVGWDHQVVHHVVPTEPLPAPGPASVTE

| SMILES | EC50 [1] | EC50 [2, 3] | EC50 [2, 4] |
| --- | --- | --- | --- |
| O=C(c1cn2cc(C(F)(F)F)cc(CO)c2n1)N1CC[C@]2(Cc3ccccc3CN2)[C@H](O)C1 [Example 29, ((3R,3’R)-3′-hydroxy-1,4-dihydro-1′H,2H-spiro[isoquinoline-3,4′-piperidin]-1′-yl)[8-(hydroxymethyl)-6-(trifluoromethyl)imidazo[1,2-a]pyridin-2-yl]methanone] | 18.4 nM | 653 nM | 0.428 nM |
| N#CCCc1cc(C(F)(F)F)cn2cc(C(=O)N3CC[C@]4(Cc5ccccc5CN4)[C@H](O)C3)nc12 [Example 34, 3-(2-((3R,3’R)-3′-hydroxy-1,4-dihydro-2H-spiro[isoquinoline-3,4′-piperidine]-1′-carbonyl)-6-(trifluoromethyl)imidazo[1,2-a]pyridin-8-yl)propanenitrile] | 4 nM | 229 nM | 0.909 nM |
| Cc1cc(C(F)(F)F)cn2cc(C(=O)N3CC[C@]4(Cc5ccccc5CN4)[C@H](O)C3)nc12 [Example 35, ((3R,3’R)-3′-hydroxy-1,4-dihydro-2H-spiro[isoquinoline-3,4′-piperidin]-1′-yl)(8-methyl-6-(trifluoromethyl)imidazo[1,2-a]pyridin-2-yl)methanone] | 5.66 nM | 248 nM | 0.766 nM |
| N#Cc1ccc2nc(C(=O)N3CC[C@]4(Cc5ccccc5CN4)[C@H](O)C3)cn2c1 [Example 36, 2-((3R,3’R)-3′-hydroxy-1,4-dihydro-2H-spiro[isoquinoline-3,4′-piperidine]-1′-carbonyl)imidazo[1,2-a]pyridine-6-carbonitrile] | 13.2 nM | 2820 nM | 6.26 nM |
| O=C(c1cn2cc(Cl)ccc2n1)N1CC[C@]2(Cc3ccccc3CN2)[C@H](O)C1 [Example 37, (6-chloroimidazo[1,2-a]pyridin-2-yl)((3R,3’R)-3′-hydroxy-1,4-dihydro-2H-spiro[isoquinoline-3,4′-piperidin]-1′-yl)methanone] | 1.61 nM | 251 nM | 0.757 nM |
| O=C(c1cn2cc(F)ccc2n1)N1CC[C@]2(Cc3ccccc3CN2)[C@H](O)C1 [Example 38, (6-fluoroimidazo[1,2-a]pyridin-2-yl)((3R,3’R)-3′-hydroxy-1,4-dihydro-2H-spiro[isoquinoline-3,4′-piperidin]-1′-yl)methanone] | 16.2 nM | 2460 nM | 3.84 nM |
| O=C(c1cn2cc(O)ccc2n1)N1CC[C@]2(Cc3ccccc3CN2)[C@H](O)C1 [Example 39, ((3R,3’R)-3′-hydroxy-1,4-dihydro-2H-spiro[isoquinoline-3,4′-piperidin]-1′-yl)(6-hydroxyimidazo[1,2-a]pyridin-2-yl)methanone] | 571 nM | 29200 nM | 95.5 nM |
| Cc1ccc2nc(C(=O)N3CC[C@]4(Cc5ccccc5CN4)[C@H](O)C3)cn2c1 [Example 40, ((3R,3’R)-3′-hydroxy-1,4-dihydro-2H-spiro[isoquinoline-3,4′-piperidin]-1′-yl)(6-methylimidazo[2,2-a]pyridin-2-yl)methanone] | 8.7 nM | 468 nM | 0.814 nM |
| O=C(c1cn2cc(C(F)F)ccc2n1)N1CC[C@]2(Cc3ccccc3CN2)[C@H](O)C1 [Example 41, (6-(difluoromethyl)imidazo[1,2-a]pyridin-2-yl)((3R,3’R)-3′-hydroxy-1,4-dihydro-2H-spiro[isoquinoline-3,4′-piperidin]-1′-yl)methanone] | 2.44 nM | 209 nM | 0.513 nM |
| O=C(c1cn2cc(Br)ncc2n1)N1CC[C@]2(Cc3ccccc3CN2)[C@H](O)C1 [Example 42, (6-bromoimidazo[1,2-a]pyrazin-2-yl)((3R,3’R)-3′-hydroxy-1,4-dihydro-2H-spiro[isoquinoline-3,4′-piperidin]-1′-yl)methanone] | 24.9 nM | 3240 nM | 5.35 nM |
| COc1ccc2nc(C(=O)N3CC[C@]4(Cc5ccccc5CN4)[C@H](O)C3)cn2c1 [Example 43, ((3R,3’R)-3′-hydroxy-1,4-dihydro-2H-spiro[isoquinoline-3,4′-piperidin]-1′-yl)(6-methoxyimidazo[1,2-a]pyridin-2-yl)methanone] | 19.1 nM | 1440 nM | 3.22 nM |
| Cc1cc(Br)cn2cc(C(=O)N3CC[C@]4(Cc5ccccc5CN4)[C@H](O)C3)nc12 [Example 44, (6-bromo-8-methylimidazo[1,2-a]pyridin-2-yl)((3R,3’R)-3′-hydroxy-1,4-dihydro-2H-spiro[isoquinoline-3,4′-piperidin]-1′-yl)methanone] | 1.32 nM | 42.1 nM | 0.687 nM |
| O=C(c1ccn(CC(F)(F)F)c(=O)c1)N1CC[C@]2(Cc3ccccc3CN2)[C@H](O)C1 [Example 45, 4-((3R,3′R)-3′-hydroxy-1,4-dihydro-2H-spiro[isoquinoline-3,4′-piperidine]-1′-carbonyl)-1-(2,2,2-trifluoroethyl)pyridin-2(1H)-one] | 224 nM | 16000 nM | 70 nM |
| CC(C)(O)c1cc(Br)cn2cc(C(=O)N3CC[C@]4(Cc5ccccc5CN4)[C@H](O)C3)nc12 [Example 47, (6-bromo-8-(2-hydroxypropan-2-yl)imidazo[1,2-a]pyridin-2-yl)((3R,3’R)-3′-hydroxy-1,4-dihydro-2H-spiro[isoquinoline-3,4′-piperidin]-1′-yl)methanone] | 9.81 nM | 403 nM | 0.421 nM |
| CC(C)(O)c1cc(Br)cn2cc(C(=O)N3CCC4(Cc5ccccc5CN4)C(O)C3)nc12 (stereo not drawn) [Example 48, A diastereomer of [6-bromo-8-(2-hydroxy-2-propanyl)imidazo[1,2-a]pyridin-2-yl](3′-hydroxy-1,4-dihydro-1′H,2H-spiro[isoquinoline-3,4′-piperidin]-1′-yl)methanone] | 246 nM | 2980 nM | 4.91 nM |

The next lines start with the values.

| EC50 [1] | EC50 [2, 3] | EC50 [2, 4] | SMILES |
| --- | --- | --- | --- |
| 3.88 nM | 347 nM | 1.15 nM | Cc1cc(Br)c2nc(C(=O)N3CC[C@]4(Cc5ccccc5CN4)[C@H](O)C3)cn2c1 [Example 49, (8-bromo-6-methylimidazo[1,2-a]pyridin-2-yl)((3R,3’R)-3′-hydroxy-1,4-dihydro-2H-spiro[isoquinoline-3,4′-piperidin]-1′-yl)methanone] |
| 1.48 nM | 62.4 nM | 0.38 nM | COc1cc(Br)cn2cc(C(=O)N3CC[C@]4(Cc5ccccc5CN4)[C@H](O)C3)nc12 [Example 50, (6-bromo-8-methoxyimidazo[1,2-a]pyridin-2-yl)((3R,3’R)-3′-hydroxy-1,4-dihydro-2H-spiro[isoquinoline-3,4′-piperidin]-1′-yl)methanone] |
| 13.7 nM | 1500 nM | 7.02 nM | CNC(=O)c1cc(Br)cn2cc(C(=O)N3CC[C@]4(Cc5ccccc5CN4)[C@H](O)C3)nc12 [Example 51, 6-bromo-2-((3R,3’R)-3′-hydroxy-1,4-dihydro-2H-spiro[isoquinoline-3,4′-piperidine]-1′-carbonyl)-N-methylimidazo[1,2-a]pyridine-8-carboxamide] |
| 169 nM | 2660 nM | 8.01 nM | O=C(c1cn2c(n1)CCC(C(F)(F)F)C2)N1CC[C@]2(Cc3ccccc3CN2)[C@H](O)C1 (stereo partly drawn) [Example 54, [(3R,3′R)-3′-hydroxy-1,4-dihydro-1′H,2H-spiro[isoquinoline-3,4′-piperidin]-1′-yl][6-(trifluoromethyl)-5,6,7,8-tetrahydroimidazo[1,2-a]pyridin-2-yl]methanone] |
| 1.17 nM | 170 nM | 0.817 nM | O=C(c1cn2cc(Br)cc(C(F)(F)F)c2n1)N1CC[C@]2(Cc3ccccc3CN2)[C@H](O)C1 [Example 55, [6-bromo-8-(trifluoromethyl)imidazo[1,2-a]pyridin-2-yl][(3R,3′R)-3′-hydroxy-1,4-dihydro-1′H,2H-spiro[isoquinoline-3,4′-piperidin]-1′-yl]methanone] |
| 82.1 nM | 10000 nM | 12.4 nM | O=C(c1cnc2ncc(Cl)cn12)N1CC[C@]2(Cc3ccccc3CN2)[C@H](O)C1 [Example 56, (6-chloroimidazo[1,2-a]pyrimidin-3-yl)[(3R,3′R)-3′-hydroxy-1,4-dihydro-1′H,2H-spiro[isoquinoline-3,4′-piperidin]-1′-yl]methanone] |
| 2190 nM | 55000 nM | 63.1 nM | O=C(c1ccn2c(Br)cnc2n1)N1CC[C@]2(Cc3ccccc3CN2)[C@H](O)C1 [Example 57, (3-bromoimidazo[1,2-a]pyrimidin-7-yl)[(3R,3′R)-3′-hydroxy-1,4-dihydro-1′H,2H-spiro[isoquinoline-3,4′-piperidin]-1′-yl]methanone] |
| 10.1 nM | 313 nM | 0.715 nM | O=C(c1nn2cc(Br)cnc2c1Cl)N1CC[C@]2(Cc3ccccc3CN2)[C@H](O)C1 [Example 58, (6-bromo-3-chloropyrazolo[1,5-a]pyrimidin-2-yl)[(3R,3′R)-3′-hydroxy-1,4-dihydro-1′H,2H-spiro[isoquinoline-3,4′-piperidin]-1′-yl]methanone] |
| 6100 nM | – | 20.2 nM | CN1CCn2cc(C(=O)N3CC[C@]4(Cc5ccccc5CN4)[C@H](O)C3)nc2C1 [Example 59, [(3R,3′R)-3′-hydroxy-1,4-dihydro-1′H,2H-spiro[isoquinoline-3,4′-piperidin]-1′-yl](7-methyl-5,6,7,8-tetrahydroimidazo[1,2-a]pyrazin-2-yl)methanone] |
